Structures are written as SMILES.

This is an account of results in patent publication US20230303564A1, “PYRIMIDINE RING COMPOUND” (MEDSHINE DISCOVERY INC., priority 2020, published 2023).

One series has as its target CDK1/CyclinB1 (Homo sapiens (Human), UniProt P06493). As to the kind of experiment: CDK1/CyclinB1 enzyme activity test (ADP-Glo). In kind it is biochemical. To be noted: 25 μM ATP, 25° C. 120 minutes, read-out: CDK1/Cyclin B IC50. Here is the method:
CDK1/CyclinB1 Enzyme Reaction System
Enzymes, substrates, ATP, and inhibitors were diluted by kinase buffer in the kit. The compounds to be tested were diluted 5-fold with a multi-channel pipette to the eighth concentration, that is, from 50 μM to 0.65 nM, the concentration of DMSO was 5%, and a double-hole experiment was set up. 1 μL of each concentration gradient of inhibitors, 2 μL of CDK1/CyclinB1 enzyme (12.5 ng), 2 μL mixture of substrate and ATP (25 μM adenosine triphosphate, 0.2 μg/μL substrate) were added to the microplates, and the final concentration gradient of the compound was 10 μM to 0.13 nM. The reaction system was reacted at 25° C. for 120 minutes. After the reaction, 5 μL of ADP-Glo reagent was added to each well, the reaction was carried out at 25° C. for 40 minutes, after the reaction was completed, 10 μL of kinase detection reagent was added to each well, the reaction was carried out at 25° C. for 30 minutes, the multiple label analyzer was used to read the chemiluminescence with an integration time of 0.5 seconds.
The equation (Sample−Min)/(Max−Min)*100% was used to convert the raw data into inhibition rate, and the value of IC50 can be obtained by curve fitting with four parameters (obtained by log (inhibitor) vs. response-Variable slope mode in GraphPad Prism). The enzymatic inhibitory activity of the compounds of the present disclosure on CDK1/CyclinB1, CDK2/CyclinA2, CDK2/CyclinE1, CDK4/CyclinD1, CDK6/CyclinD1, CDK7/CyclinH/MAT1, CDK9/CyclinT1 was provided in Table 1.
(ADP-Glo first removes unused ATP, then detects ADP through luciferase.)

A further series has as its system OVCAR-3 cells. Briefly: Cell activity test, anti-proliferation (CellTiter Glo), OVCAR-3. Type of series: cell-based, human. Particulars: OVCAR-3, 7 days of culture. Here is the method: 2) Day 1: Laying Cell Plates
(6) 0.7 mL of cell suspension was pipetted into the counting cup, the cells were counted on ViCell XR, and the cell suspension was diluted separately with culture medium to the required cell concentration for laying cell plates: 1000/30 ul.
(7) Microplates (2 plates) were required, 100 uL of phosphate buffered saline was added to the peripheral wells of the 384-well plate, 30 uL of cell suspension was added to the other wells, and the cell plate was placed into incubator for culture.
(1) Compound preparation: the stock solution of the compound to be tested was 10 mM.
(2) The compound to be tested was diluted 3 times with DMSO for 10 gradients.
(2) The compound to be tested was diluted with culture medium, and the highest final concentration was 10 μM.
(4) 10 μL of the compound was pipetted into the 384-well plate, and then the cell plate was placed back into the incubator for culture.
4) Adding CTG and Reading the Plate
(1) After 7 days of culture, 50 ul CellTiter Glo was added to the cell plate, shaken for 10 minutes in the dark, and left at room temperature for 5 minutes.
(2) The plate was read on Envision with the program: US LUM 384 (CPS). The experiment was originally stored in the personal disk:
1. The mean and standard deviation of 0% inhibition (DMSO row, ZPE) and 100% inhibition (PBS row, HPE) were calculated;
2. Inhibition rate (%)=(1−(sample value-average value of 100% inhibition)/(average value of 0% inhibition-average value of 100% inhibition))*100;
3. The curve was fitted by GraphPad 8.0 software;
Background: ATP-based viability assays read luminescence as a measure of living cells.

Series [1] is described as follows: Pharmacokinetic evaluation in CD-1 (ICR) mice, oral. In kind it is in vivo, mouse. Particulars: male CD-1 (ICR) mice, oral 5 mg/kg, plasma. Here is the method: Experimental Scheme of Compounds 18, 19 and 20
The healthy adult male CD-1 (ICR) mice used in this study were purchased from Pinghu Weitong Lihua Experimental Animal Technology Co., Ltd.
0.300 mL of the stock solution was measured and vortexed for 2 minutes to obtain a homogeneous suspension at a concentration of 1 mg/mL, and the administration vehicle was 1% HPMC in water.
Two male CD-1 (ICR) mice were given 5 mg/kg of the compound to be tested by intragastric administration.
The blood of two animals was collected at each time point by serial blood collection. 30 μL of whole blood was collected respectively at 0.25, 0.5, 1, 2, 4, 8, and 24 hours after administration. The whole blood was placed in an anticoagulant tube, centrifuged at 3200 g for 10 minutes at 4° C., plasma was prepared and stored at −60° C. or lower. The drug concentration in plasma was determined by LC/MS-MS.

Chain of CDK1/CyclinB1 (P06493 whole entry): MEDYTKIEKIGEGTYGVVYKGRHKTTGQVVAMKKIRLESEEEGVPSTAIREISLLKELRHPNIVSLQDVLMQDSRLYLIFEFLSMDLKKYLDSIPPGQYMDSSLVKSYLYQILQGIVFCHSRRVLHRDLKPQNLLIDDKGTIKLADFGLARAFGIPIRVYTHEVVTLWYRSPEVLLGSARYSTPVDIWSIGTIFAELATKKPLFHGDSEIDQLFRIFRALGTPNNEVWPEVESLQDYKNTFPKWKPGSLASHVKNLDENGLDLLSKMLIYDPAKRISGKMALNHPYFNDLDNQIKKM
Chain of CDK1/CyclinB1 (P14635 whole entry partner): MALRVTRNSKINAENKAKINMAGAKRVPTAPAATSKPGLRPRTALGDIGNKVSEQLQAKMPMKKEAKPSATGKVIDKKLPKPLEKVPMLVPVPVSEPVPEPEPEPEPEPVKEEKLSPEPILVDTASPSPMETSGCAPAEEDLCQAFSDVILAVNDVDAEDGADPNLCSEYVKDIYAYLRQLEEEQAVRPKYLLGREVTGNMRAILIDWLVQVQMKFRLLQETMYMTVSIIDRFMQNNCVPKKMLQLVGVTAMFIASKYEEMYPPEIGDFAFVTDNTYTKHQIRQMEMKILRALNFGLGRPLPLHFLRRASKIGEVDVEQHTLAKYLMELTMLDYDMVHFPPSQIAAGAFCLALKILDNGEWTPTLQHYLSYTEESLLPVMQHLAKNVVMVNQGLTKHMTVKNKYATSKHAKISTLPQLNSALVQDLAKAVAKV

Regarding `CS(=O)(=O)N1CCC(Nc2ncc3cc(C(F)F)nc(N[C@@H]4CCCC4(F)F)c3n2)CC1` (single isomer, unassigned) [Compound 22], the values for the IC50 at CDK1/CyclinB1 and in the series on OVCAR-3 cells were 8.86 nM and 44 nM, respectively.
Turning to `Cc1cn(C)nc1Nc1nc(C(F)F)cc2cnc(NC3CCN(S(C)(=O)=O)CC3)nc12` [Compound 19], in series [1], the “Oral exposure AUC0-t” value was 3143 nM·h. For the same compound, in the series with OVCAR-3 cells, the IC50 was found to be 29 nM.
Turning to `Cn1cc(Cl)c(Nc2nc(C(F)F)cc3cnc(NC4CCN(S(C)(=O)=O)CC4)nc23)n1` [Compound 20], the “Oral exposure AUC0-t” value in series [1] turned out to be 2746 nM·h. The compound also had an IC50 with OVCAR-3 cells of 12 nM.
